This passage reports IC50 results from patent US11306096B2, “4,6 dihydropyrrolo [3,4-C] pyrazole-5 (1H)-carbonitrile derivates for treating cancer” (MISSION THERAPEUTICS LIMITED, priority 2016, dated 2022).

In this assay the target is USP7 (Homo sapiens (Human), UniProt Q93009). Kind of assay: USP7 Biochemical IC50 Assay. Conditions: FLAG-USP7; enzyme and compound incubated 30 min at room temp; TAMRA labelled peptide-ubiquitin fluorescence polarisation substrate; read after 2 hr; read-out: IC50 range. How it is done: The USP7 construct was PCR amplified and cloned into a pFLAG-CMV-6a vector (Sigma-Aldrich) with an N-terminal FLAG tag. HEK293T cells were transfected with FLAG-USP7 using TransIT-LT1 transfection reagent (Mirus) according to the manufacturer's instructions. Cells were harvested 40 hours after transfection. […] The resin was washed two times with low salt buffer plus protease inhibitors (complete mini, Roche) and phosphatase inhibitors (PhosSTOP mini, Roche) and one time with high salt buffer (20 mM Tris, pH 7.5, 500 mM NaCl, 0.5 mM EDTA, 5 mM beta-mercaptoethanol, protease inhibitors (complete mini, Roche) and phosphatase inhibitors (PhosSTOP mini, Roche). To elute the bound USP7, elution buffer (10 mM Tris, pH 7.5, 150 mM NaCl, 0.5 mM EDTA, 10% glycerol, 0.5% NP40, 5 mM beta-mercaptoethanol, 0.15 mg/ml 3×FLAG peptide (Sigma-Aldrich)) was added to the resin and incubated at 4° C. for 2.5 hours rotating. The resin was centrifuged at 4000 rpm for 30 seconds, and the supernatant containing purified FLAG-USP7 was removed and stored at −80° C.
USP7, sequence (Q93009 whole entry): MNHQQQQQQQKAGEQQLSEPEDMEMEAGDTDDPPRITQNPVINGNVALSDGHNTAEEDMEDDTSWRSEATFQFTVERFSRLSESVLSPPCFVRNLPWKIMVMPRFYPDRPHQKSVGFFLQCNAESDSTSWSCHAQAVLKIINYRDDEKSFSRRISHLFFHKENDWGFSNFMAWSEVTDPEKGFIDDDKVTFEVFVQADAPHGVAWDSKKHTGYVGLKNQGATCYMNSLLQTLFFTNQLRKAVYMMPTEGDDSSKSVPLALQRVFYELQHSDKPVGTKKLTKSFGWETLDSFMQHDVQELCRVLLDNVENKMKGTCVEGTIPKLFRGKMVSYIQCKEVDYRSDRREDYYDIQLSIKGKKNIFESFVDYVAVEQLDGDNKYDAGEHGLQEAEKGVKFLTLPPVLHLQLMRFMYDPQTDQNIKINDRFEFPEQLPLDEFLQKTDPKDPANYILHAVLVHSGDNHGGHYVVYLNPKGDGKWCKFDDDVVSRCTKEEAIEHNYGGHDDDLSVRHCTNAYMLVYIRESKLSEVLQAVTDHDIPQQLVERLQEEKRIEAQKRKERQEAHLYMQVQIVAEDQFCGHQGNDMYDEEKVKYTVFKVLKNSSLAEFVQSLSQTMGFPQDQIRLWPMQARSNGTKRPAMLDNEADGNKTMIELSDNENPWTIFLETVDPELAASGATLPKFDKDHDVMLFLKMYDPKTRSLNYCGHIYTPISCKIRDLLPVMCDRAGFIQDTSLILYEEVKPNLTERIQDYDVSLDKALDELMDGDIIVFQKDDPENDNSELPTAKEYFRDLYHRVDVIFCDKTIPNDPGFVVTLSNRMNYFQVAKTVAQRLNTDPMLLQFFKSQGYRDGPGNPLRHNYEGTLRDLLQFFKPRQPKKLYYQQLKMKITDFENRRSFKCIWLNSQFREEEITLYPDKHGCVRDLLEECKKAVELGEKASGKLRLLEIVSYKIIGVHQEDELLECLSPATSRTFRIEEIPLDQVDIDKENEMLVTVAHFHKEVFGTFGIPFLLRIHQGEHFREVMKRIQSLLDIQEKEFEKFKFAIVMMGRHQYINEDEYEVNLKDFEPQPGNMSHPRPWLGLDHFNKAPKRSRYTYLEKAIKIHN
USP7 Biochemical IC50 Assay
A typical 8-point dilution series would be 100, 30, 10, 3, 1, 0.3, 0.1, 0.03 μM final. […] Either 1 μl of 50% DMSO or diluted compound was added to the plate. USP7 was diluted in reaction buffer (20 mM Tris, pH 7.5, 100 mM NaCl, 0.05% Tween 20, 0.5 mg/ml BSA, 5 mM—beta mercaptoethanol) to the equivalent of 0.0025 μl/well and 10 μl of diluted USP7 was added to the compound. Enzyme and compound were incubated for 30 min at room temp. Reactions were initiated by the addition of 50 nM of TAMRA labelled peptide linked to ubiquitin via an iso-peptide bond as fluorescence polarisation substrate. Reactions were read immediately after addition of substrate and following a 2 hr incubation at room temperature. Readings were performed on a Pherastar Plus (BMG Labtech). λ Excitation 540 nm; λ Emission 590 nm.

For the compound `N#CN1Cc2[nH]nc(-c3ccccc3F)c2C1` [Example 58, 3-(2-Fluorophenyl)-4,6-dihydropyrrolo[3,4-c]pyrazole-5(1H)-carbonitrile], the IC50 (commonly the midpoint of a concentration-inhibition curve) was below 10 µM.
Consider `N#CN1Cc2cnn(-c3cccc(C(=O)NCc4ccccc4)c3)c2C1` [Example 11, N-Benzyl-3-(5-cyano-5,6-dihydropyrrolo[3,4-c]pyrazol-1(4H)-yl)benzamide], for which the IC50 lay within 10 to 30 µM.
The figure for `COc1ccc(-n2ncc3c2CN(C#N)C3)cc1` [Example 1, 1-(4-Methoxyphenyl)-4,6-dihydropyrrolo[3,4-c]pyrazole-5(1H)-carbonitrile] is 10 to 30 µM; for `N#CN1Cc2cnn(-c3cnn(-c4ccccc4)c3)c2C1` [Example 8, 1-(1-Phenyl-1H-pyrazol-4-yl)-4,6-dihydropyrrolo[3,4-c]pyrazole-5(1H)-carbonitrile] it is below 10 µM; for `Cc1ccc(F)c(-c2c3c(nn2C)CN(C#N)C3)c1` [Example 61, 3-(2-fluoro-5-methylphenyl)-2-methyl-2,6-dihydropyrrolo[3,4-c]pyrazole-5(4H)-carbonitrile] it is 10 to 30 µM.
With `Cc1ccc2[nH]ncc2c1-c1n[nH]c2c1CN(C#N)C2` [Example 54, 3-(5-Methyl-1H-indazol-4-yl)-4,6-dihydropyrrolo[3,4-c]pyrazole-5(1H)-carbonitrile] the figure was below 10 µM; with `CC(=O)NCc1nn(-c2ccccc2)c2c1CN(C#N)C2` [Example 36, N-((5-Cyano-1-phenyl-1,4,5,6-tetrahydropyrrolo[3,4-c]pyrazol-3-yl)methyl)acetamide], 10 to 30 µM.
With `N#CN1Cc2[nH]nc(-c3ccc(Oc4ccccc4)cc3)c2C1` [Example 41, 3-(4-Phenoxyphenyl)-4,6-dihydropyrrolo[3,4-c]pyrazole-5(1H)-carbonitrile] the figure was below 10 µM.
For the compound `N#CN1Cc2[nH]nc(-c3cccc(F)c3)c2C1` [Example 57, 3-(3-Fluorophenyl)-4,6-dihydropyrrolo[3,4-c]pyrazole-5(1H)-carbonitrile], the concentration for half-maximal inhibition (IC50) is below 10 µM.
The figure for `N#CN1Cc2cnn(-c3cccc(C(=O)NCc4ccccn4)c3)c2C1` [Example 13, 3-(5-Cyano-5,6-dihydropyrrolo[3,4-c]pyrazol-1(4H)-yl)-N-(pyridin-2-ylmethyl)benzamide] is below 10 µM; for `COc1cccc(-n2ncc3c2CN(C#N)C3)c1` [Example 7, 1-(3-Methoxyphenyl)-4,6-dihydropyrrolo[3,4-c]pyrazole-5(1H)-carbonitrile] it is 10 to 30 µM; for `COc1cc(Cl)ccc1-c1n[nH]c2c1CN(C#N)C2` [Example 67, 3-(4-Chloro-2-methoxyphenyl)-4,6-dihydropyrrolo[3,4-c]pyrazole-5(4H)-carbonitrile] it is below 10 µM.
As for `CN1CCN(c2ccc(-c3n[nH]c4c3CN(C#N)C4)cc2)CC1` [Example 66, 3-(4-(4-Methylpiperazin-1-yl)phenyl)-4,6-dihydro-pyrrolo[3,4-c]pyrazole-5(1H)-carbonitrile], the IC50 is below 10 µM.
The figure for `CN(C)S(=O)(=O)c1cccc(-c2n[nH]c3c2CN(C#N)C3)c1` [Example 47, 3-(5-Cyano-1,4,5,6-tetrahydropyrrolo[3,4-c]pyrazol-3-yl)-N,N-dimethylbenzene-sulfonamide] is below 10 µM.
The figure for `N#CN1Cc2[nH]nc(CNC(=O)c3cc(-c4ccccc4)n[nH]3)c2C1` [Example 34, N-((5-Cyano-1,4,5,6-tetrahydropyrrolo[3,4-c]pyrazol-3-yl)methyl)-3-phenyl-1H-pyrazole-5-carboxamide] is below 10 µM; for `N#CN1Cc2cnn(-c3n[nH]c4ccccc34)c2C1` [Example 19, 1-(1H-Indazol-3-yl)-4,6-dihydropyrrolo[3,4-c]pyrazole-5(1H)-carbonitrile] it is below 10 µM; for `Cc1nn(-c2ccccc2)c2c1CN(C#N)C2` [Example 10, 3-Methyl-1-phenyl-4,6-dihydropyrrolo[3,4-c]pyrazole-5(1H)-carbonitrile] it is 10 to 30 µM.
As for `N#Cc1cccc(-c2n[nH]c3c2CN(C#N)C3)c1` [Example 38, 3-(3-Cyanophenyl)-4,6-dihydropyrrolo[3,4-c]pyrazole-5(1H)-carbonitrile], the IC50 was below 10 µM.
With `CN1CCC(n2cc(-c3n[nH]c4c3CN(C#N)C4)cn2)CC1` [Example 68, 3-(1-(1-Methylpiperidin-4-yl)-1H-pyrazol-4-yl)-4,6-dihydropyrrolo[3,4-c]pyrazole-5(1H)-carbonitrile] the figure was below 10 µM.
The figure for `COc1ccc(C(C)C)cc1-c1nn(Cc2ccccc2)c2c1CN(C#N)C2` [Example 25, 1-Benzyl-3-(5-isopropyl-2-methoxyphenyl)-4,6-dihydropyrrolo[3,4-c]pyrazole-5(1H)-carbonitrile] is 10 to 30 µM; for `N#CN1Cc2[nH]nc(-c3ccc(C(F)(F)F)cc3F)c2C1` [Example 43, 3-(2-Fluoro-4-(trifluoromethyl)phenyl)-4,6-dihydropyrrolo[3,4-c]pyrazole-5(1H)-carbonitrile] it is below 10 µM; for `N#CN1Cc2cnn(-c3cnc4ccccc4c3)c2C1` [Example 6, 1-(Quinolin-3-yl)-4,6-dihydropyrrolo[3,4-c]pyrazole-5(1H)-carbonitrile] it is below 10 µM.
With `N#CN1Cc2[nH]nc(Nc3cc4ccccc4cn3)c2C1` [Example 31, 3-(Isoquinolin-3-ylamino)-4,6-dihydropyrrolo[3,4-c]pyrazole-5(1H)-carbonitrile] the figure was below 10 µM; with `N#Cc1ccc(-c2n[nH]c3c2CN(C#N)C3)cc1` [Example 42, 3-(4-Cyanophenyl)-4,6-dihydropyrrolo[3,4-c]pyrazole-5(1H)-carbonitrile], below 10 µM.
As for `N#CN1Cc2[nH]nc(-c3ccc(F)cc3)c2C1` [Example 59, 3-(4-Fluorophenyl)-4,6-dihydropyrrolo[3,4-c]pyrazole-5(1H)-carbonitrile], the 50% inhibitory concentration (IC50) is below 10 µM.
The figure for `CNC(=O)c1cc(-n2ncc3c2CN(C#N)C3)ccc1OC` [Example 18, 5-(5-Cyano-5,6-dihydropyrrolo[3,4-c]pyrazol-1(4H)-yl)-2-methoxy-N-methylbenzamide] is 30 to 100 µM; for `COc1ccc(-c2n[nH]c3c2CN(C#N)C3)cn1` [Example 46, 3-(6-Methoxypyridin-3-yl)-4,6-dihydro-pyrrolo[3,4-c]pyrazole-5(1H)-carbonitrile] it is below 10 µM.
The figure for `N#CN1Cc2[nH]nc(-c3cccc(OC(F)(F)F)c3)c2C1` [Example 40, 3-(3-(Trifluoro-methoxy)phenyl)-4,6-dihydropyrrolo[3,4-c]pyrazole-5(1H)-carbonitrile] is 10 to 30 µM; for `Cc1ccc(F)c(-c2nn(C)c3c2CN(C#N)C3)c1` [Example 60, 3-(2-fluoro-5-methylphenyl)-1-methyl-4,6-dihydropyrrolo[3,4-c]pyrazole-5(1H)-carbonitrile] it is below 10 µM; for `COc1ccc(C(C)C)cc1-c1c2c(nn1C)CN(C#N)C2` [Example 63, 3-(5-Isopropyl-2-methoxyphenyl)-2-methyl-2,6-dihydropyrrolo[3,4-c]pyrazole-5(4H)-carbonitrile] it is 10 to 30 µM.
The figure for `N#CN1Cc2[nH]nc(-c3ccc(OCc4ccccc4)cc3)c2C1` [Example 37, 3-(4-(Benzyloxy)phenyl)-4,6-dihydropyrrolo[3,4-c]pyrazole-5(1H)-carbonitrile] is below 10 µM; for `Cn1nccc1-c1n[nH]c2c1CN(C#N)C2` [Example 39, 3-(1-Methyl-1H-pyrazol-5-yl)-4,6-dihydropyrrolo[3,4-c]pyrazole-5(1H)-carbonitrile] it is 10 to 30 µM; for `COc1ccc(C(C)C)cc1-c1n[nH]c2c1CN(C#N)C2` [Example 26, 3-(5-Isopropyl-2-methoxyphenyl)-4,6-dihydropyrrolo[3,4-c]pyrazole-5(1H)-carbonitrile] it is below 10 µM.
`N#CN1Cc2cnn(-c3ccc(F)cc3)c2C1` [Example 3, 1-(4-Fluorophenyl)-4,6-dihydropyrrolo[3,4-c]pyrazole-5(1H)-carbonitrile]: the IC50 was below 10 µM.
The figure for `N#CN1Cc2cnn(-c3ccc(C(N)=O)cc3)c2C1` [Example 5, 4-(5-Cyano-5,6-dihydropyrrolo[3,4-c]pyrazol-1(4H)-yl)benzamide] is 10 to 30 µM.
The figure for `N#CN1Cc2cnn(-c3ccc(C(=O)NCc4ccccn4)cc3)c2C1` [Example 14, 4-(5-Cyano-5,6-dihydro-pyrrolo[3,4-c]pyrazol-1(4H)-yl)-N-(pyridin-2-ylmethyl)benzamide] is 10 to 30 µM.
With `CN1CCN(C(=O)c2ccc(-c3n[nH]c4c3CN(C#N)C4)cc2)CC1` [Example 51, 3-(4-(4-Methylpiperazine-1-carbonyl)phenyl)-4,6-dihydropyrrolo[3,4-c]pyrazole-5(1H)-carbonitrile] the figure was below 10 µM.
